Experimental data taken from EP0975634B1, “FUNGICIDAL TRIFLUOROPHENYL-TRIAZOLOPYRIMIDINES” (BASF AKTIENGESELLSCHAFT, priority 1997, dated 1998).
In brackets after ≈: the same amount, converted by molar mass. Read-outs that look alike come from different tables or passages of the source.

What was measured:
Leptosphaeria nodorum = assay: Minimum Inhibitory Concentration, serial dilution test; assay type: cell-based; details: for MIC: Parastagonospora nodorum, read-out: MIC (Minimum Inhibitory Concentration) LEPTNO
Pyrenophora teres = assay: as above; assay type: cell-based; details: for MIC: Pyrenophora teres, read-out: MIC (Minimum Inhibitory Concentration) PYRNTE
Altemaria solani = assay: organism not typed; assay type: cell-based; details: for MIC: read-out: MIC (Minimum Inhibitory Concentration) ALTESO
Botrytis cinerea = assay: microbe, parasite or virus in culture; assay type: cell-based; details: for MIC: Botrytis cinerea, read-out: MIC (Minimum Inhibitory Concentration) BOTRCI
[1] = tested on: Magnaporthe grisea f. sp. Oryzae; assay: microbe, parasite or virus in culture; assay type: cell-based; details: for MIC: Pyricularia oryzae, read-out: MIC (Minimum Inhibitory Concentration) PYRIOR; for MIC (Minimum Inhibitory Concentration) PYRIOR: total inhibition of mycelial growth, V8 nutrient solution, 6-12 days incubation at 18-25°C, visual inspection
Phytophthora infestans = assay: microbe, parasite or virus in culture; assay type: cell-based; details: for MIC: Phytophthora infestans, read-out: MIC (Minimum Inhibitory Concentration) PHYTIN; for MIC (Minimum Inhibitory Concentration) PHYTIN: total inhibition of mycelial growth, V8 nutrient solution, 6-12 days incubation at 18-25°C, visual inspection
Uncinula necator = assay: Control of powdery mildew on grapes, prophylactic greenhouse test; assay type: in vivo; details: grape cultivar Müller-Thurgau, application 3 days before infection, evaluation 21 days after infection; for activity at 3.13 ppm / activity at 6.25 ppm / activity at 12.5 ppm / activity at 25 ppm: Erysiphe necator, read-out: % activity (ABBOTT formula)
Rhizoctonia solani = assay: Minimum Inhibitory Concentration, serial dilution test; assay type: cell-based; details: for MIC: Rhizoctonia solani, read-out: MIC (Minimum Inhibitory Concentration) RHISZO
[2] = total inhibition of mycelial growth, V8 nutrient solution, 6-12 days incubation at 18-25°C, visual inspection

Row | SMILES | MIC (Leptosphaeria nodorum; [2]) [µg/mL] | MIC (Pyrenophora teres; [2]) [µg/mL] | MIC (Altemaria solani) [µg/mL] | MIC (Botrytis cinerea) [µg/mL] | MIC [1] [µg/mL] | activity at 3.13 ppm (Uncinula necator; Concentration 3.13 ppm) [%] | activity at 6.25 ppm (Uncinula necator; Concentration 6.25 ppm) [%] | activity at 12.5 ppm (Uncinula necator; Concentration 12.50 ppm) [%] | activity at 25 ppm (Uncinula necator; Concentration 25.00 ppm) [%] | MIC (Minimum Inhibitory Concentration) PHYTIN (Phytophthora infestans) [mg/mL] | MIC (Minimum Inhibitory Concentration) ALTESO (Altemaria solani) [mg/mL] | MIC (Minimum Inhibitory Concentration) BOTRCI (Botrytis cinerea) [mg/mL] | MIC (Minimum Inhibitory Concentration) PYRIOR [1] [mg/mL] | further results
1 | OC1CCCN(c2c(-c3c(F)cc(F)cc3F)c(Cl)nc3ncnn23)C1 (stereo not shown) [Example 41, 5-chloro-7-(3-hydroxypiperidin-1-yl)-6-(2,4,6-trifluorophenyl)-[1,2,4]triazolo[1,5-a]-pyrimidine] | 50000 (≈ 130 mM) | 25000 (≈ 65.1 mM) | 6250 (≈ 16.3 mM) | 100000 (≈ 261 mM) | 12500 (≈ 32.6 mM) | – | – | – | – | – | – | – | – | –
2 | Fc1cc(F)c(-c2c(Cl)nc3ncnn3c2NCC(F)(F)F)c(F)c1 [Example 12, 5-chloro-7-(N-2,2,2-trifluoroethylamino)-6-(2,4,6-trifluorophenyl)-[1,2,4]triazolo[1,5-a]pyrimidine] | 6250 (≈ 16.4 mM) | 6250 (≈ 16.4 mM) | 1560 (≈ 4.09 mM) | 1560 (≈ 4.09 mM) | 200 (≈ 0.524 mM) | 97 | 100 | 100 | 100 | – | – | – | – | MIC (Phytophthora infestans): 25 mg/mL (≈ 65.5 mM); MIC (Rhizoctonia solani; [2]): 6250 µg/mL (≈ 16.4 mM)
3 | CCCC(Nc1c(-c2c(F)cc(F)cc2F)c(Cl)nc2ncnn12)C(C)C (stereo not shown) [Example 57, 5-chloro-7-[3-(2-methylhexyl)-amino]-6-(2,4,6-trifluorophenyl)-[1,2,4]triazolo[5-a]-pyrimidine] | – | – | – | – | – | – | – | – | – | 110 (≈ 276 mM) | 0.2 (≈ 0.503 mM) | 0.39 (≈ 0.98 mM) | 0.04 (≈ 0.101 mM) | MIC (Minimum Inhibitory Concentration) LEPTNO (Leptosphaeria nodorum; [2]): 0.78 mg/mL (≈ 1.96 mM); MIC (Minimum Inhibitory Concentration) PYRNTE (Pyrenophora teres; [2]): 3.13 mg/mL (≈ 7.87 mM); MIC (Minimum Inhibitory Concentration) RHISZO (Rhizoctonia solani; [2]): 110 mg/mL (≈ 276 mM)
4 | Fc1cc(F)c(-c2c(Cl)nc3ncnn3c2NC2CC3CCC2C3)c(F)c1 (stereo not shown) [Example 11, 5-chloro-7-(N-norborn-2-ylamino)-6-(2,4,6-trifluorophenyl)-[1,2,4]triazolo[1,5-a]pyrimidine] | – | – | – | – | – | 64 | 93 | 100 | 100 | – | – | – | – | –
5 | CCCC(Cn1cncn1)c1ccc(Cl)cc1Cl (stereo not shown) [Penconazole, reference compound] | – | – | – | – | – | 11 | 17 | 31 | 58 | – | – | – | – | –
6 | CC1CCN(c2c(-c3c(F)cc(F)cc3F)c(Cl)nc3ncnn23)CC1 [Example 2, 5-chloro-7-(4-methylpiperidin-1-yl)-6-(2,4,6-trifluorophenyl)-[1,2,4]triazolo[1,5-a]pyrimidine] | 6250 (≈ 16.4 mM) | 200 (≈ 0.524 mM) | 40 (≈ 0.105 mM) | 100 (≈ 0.262 mM) | 40 (≈ 0.105 mM) | 100 | 100 | 100 | 100 | – | – | – | – | MIC (Phytophthora infestans): 100 mg/mL (≈ 262 mM)
7 | OC(c1ccc(Cl)cc1)(c1cncnc1)c1ccccc1Cl (stereo not shown) [Fenarimol, reference compound] | – | – | – | – | – | 31 | 75 | 95 | 99 | – | – | – | – | –
8 | Fc1cc(F)c(-c2c(Cl)nc3ncnn3c2NC(c2ccccc2)C(F)(F)F)c(F)c1 (stereo not shown) [Example 52, 5-chloro-7-[N-(1-phenyl-2,2,2-trifluoroethyl)-amino]-6-(2,4,6-trifluorophenyl)-[1,2,4]triazolo[1,5-a]pyrimidine] | – | 3130 (≈ 6.84 mM) | 3130 (≈ 6.84 mM) | 12500 (≈ 27.3 mM) | 1560 (≈ 3.41 mM) | – | – | – | – | – | – | – | – | –
9 | CC(Nc1c(-c2c(F)cc(F)cc2F)c(Cl)nc2ncnn12)C(F)(F)F (stereo not shown) [Example 28, 5-chloro-7-[N-2-(1,1,1-trifluoropropyl)-amino]-6-(2,4,6-trifluorophenyl)-[1,2,4]triazolo[1,5-a]pyrimidine] | – | – | – | – | – | – | – | – | – | 110 (≈ 278 mM) | 0.78 (≈ 1.97 mM) | 3.13 (≈ 7.91 mM) | 0.78 (≈ 1.97 mM) | MIC (Minimum Inhibitory Concentration) LEPTNO (Leptosphaeria nodorum; [2]): 3.13 mg/mL (≈ 7.91 mM); % activity (ABBOTT formula) (Uncinula necator; Concentration 3.13 ppm): 97%; % activity (ABBOTT formula) (Uncinula necator; Concentration 6.25 ppm): 100%; % activity (ABBOTT formula) (Uncinula necator; Concentration 12.50 ppm): 100%; % activity (ABBOTT formula) (Uncinula necator; Concentration 25.00 ppm): 100%; MIC (Minimum Inhibitory Concentration) PYRNTE (Pyrenophora teres; [2]): 6.25 mg/mL (≈ 15.8 mM); MIC (Minimum Inhibitory Concentration) RHISZO (Rhizoctonia solani; [2]): 3.13 mg/mL (≈ 7.91 mM)
10 | CC(C)CN(CC(F)(F)F)c1c(-c2c(F)cc(F)cc2F)c(Cl)nc2ncnn12 [Example 26, 5-chloro-7-(N-2-methylpropyl-N-2,2,2-trifluoroethylamino)-6-(2,4,6-trifluorophenyl)-[1,2,4]triazolo[1,5-a]pyrimidine] | 390 (≈ 0.891 mM) | – | 200 (≈ 0.457 mM) | 200 (≈ 0.457 mM) | 40 (≈ 0.0914 mM) | 0 | 14 | 22 | 27 | – | – | – | – | MIC (Rhizoctonia solani; [2]): 3130 µg/mL (≈ 7.15 mM)
11 | CC(C)C(Nc1c(-c2c(F)cc(F)cc2F)c(Cl)nc2ncnn12)C(F)(F)F (stereo not shown) [Example 55, 5-chloro-7-[N-2-(3-methyl-1,1,1-trifluorobutyl)-amino]-6-(2,4,6-trifluorophenyl)-[1,2,4]triazolo[1,5-a]-pyrimidine] | – | – | – | – | – | – | – | – | – | 100 (≈ 236 mM) | 0.39 (≈ 0.92 mM) | 1.56 (≈ 3.68 mM) | 0.04 (≈ 0.0944 mM) | MIC (Minimum Inhibitory Concentration) LEPTNO (Leptosphaeria nodorum; [2]): 1.56 mg/mL (≈ 3.68 mM); MIC (Minimum Inhibitory Concentration) PYRNTE (Pyrenophora teres; [2]): 6.25 mg/mL (≈ 14.7 mM); MIC (Minimum Inhibitory Concentration) RHISZO (Rhizoctonia solani; [2]): 12.5 mg/mL (≈ 29.5 mM)
12 | CC(C)CCN(C)c1c(-c2c(F)cc(F)cc2F)c(Cl)nc2ncnn12 [Example 54, 5-chloro-7-[N-(3-methylbutyl)-N-methylamino]-6-(2,4,6-trifluorophenyl)-[1,2,4]triazolo[1,5-a]pyrimidine] | 12500 (≈ 32.6 mM) | 3130 (≈ 8.16 mM) | 780 (≈ 2.03 mM) | 3130 (≈ 8.16 mM) | 40 (≈ 0.104 mM) | – | – | – | – | – | – | – | – | –
13 | C[Si](C)(C)CN(CC(F)(F)F)c1c(-c2c(F)cc(F)cc2F)c(Cl)nc2ncnn12 [Example 40, 5-chloro-7-[N-(2.2,2-trifluoroethyl)-N-(trimethylsiiylmethyl)-amino]-6-(2.4,6-trifiuorophenyl)-[1,2,4]triazolo[1,5-a]pyrimidine] | – | – | – | – | – | – | – | – | – | 25 (≈ 53.4 mM) | 0.78 (≈ 1.67 mM) | 6.25 (≈ 13.4 mM) | 1.56 (≈ 3.33 mM) | MIC (Minimum Inhibitory Concentration) LEPTNO (Leptosphaeria nodorum): 110 mg/mL (≈ 235 mM); MIC (Minimum Inhibitory Concentration) PYRNTE (Pyrenophora teres): 25 mg/mL (≈ 53.4 mM); MIC (Minimum Inhibitory Concentration) RHISZO (Rhizoctonia solani): 110 mg/mL (≈ 235 mM)
14 | CN(CC(F)(F)F)c1c(-c2c(F)cc(F)cc2F)c(Cl)nc2ncnn12 [Example 27, 5-chloro-7-(N-methyl-N-2,2.2-trifluoroethylamino)-6-(2,4,6-trifluorophenyl)-[1,2,4]triazolo[1,5-a]-pyrimidine] | – | – | – | – | – | – | – | – | – | 110 (≈ 278 mM) | 0.78 (≈ 1.97 mM) | 3.13 (≈ 7.91 mM) | 0.1 (≈ 0.253 mM) | MIC (Minimum Inhibitory Concentration) LEPTNO (Leptosphaeria nodorum; [2]): 50 mg/mL (≈ 126 mM); % activity (ABBOTT formula) (Uncinula necator; Concentration 3.13 ppm): 0%; % activity (ABBOTT formula) (Uncinula necator; Concentration 6.25 ppm): 0%; % activity (ABBOTT formula) (Uncinula necator; Concentration 12.50 ppm): 11%; % activity (ABBOTT formula) (Uncinula necator; Concentration 25.00 ppm): 17%; MIC (Minimum Inhibitory Concentration) PYRNTE (Pyrenophora teres; [2]): 12.5 mg/mL (≈ 31.6 mM); MIC (Minimum Inhibitory Concentration) RHISZO (Rhizoctonia solani; [2]): 1.56 mg/mL (≈ 3.94 mM)
15 | CC1CCN(c2c(-c3c(F)cccc3Cl)c(Cl)nc3ncnn23)CC1 [standard^1, 5-chloro-7-(4-methylpiperidin-1-yl)-6-(2-chloro-6-fluorophenyl)-[1,2,4]triazolo[1,5-a]pyrimidine, reference compound] | – | – | – | – | – | 31 | 42 | 44 | 73 | – | – | – | – | –
